The source of these data is US6387913B1, “Method of treating airway diseases with combined administration of A2B and A3 adenosine receptor antagonists” (priority 2000, dated 2002).

The structures appear in SMILES notation.

Format in all cases: in vivo
One assay deals with T1, A2B adenosine receptor (Mus musculus, UniProt Q60614).
T1 construct: from tissue; host or cells: live mouse (airways/lung), control and sensitized animals
T1 sequence (Q60614 1-332): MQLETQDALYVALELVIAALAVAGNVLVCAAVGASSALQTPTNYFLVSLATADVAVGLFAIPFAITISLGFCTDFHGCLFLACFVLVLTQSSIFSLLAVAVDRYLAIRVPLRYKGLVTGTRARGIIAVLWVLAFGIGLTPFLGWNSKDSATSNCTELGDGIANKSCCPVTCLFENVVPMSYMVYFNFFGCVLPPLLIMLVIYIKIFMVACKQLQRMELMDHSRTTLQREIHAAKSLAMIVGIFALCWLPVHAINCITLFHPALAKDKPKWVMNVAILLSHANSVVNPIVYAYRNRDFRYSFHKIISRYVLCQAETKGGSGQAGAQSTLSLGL
Description: Effect of enprofylline on dose-responsiveness to NECA (Penh) in a mouse model of asthma. Particulars: enprofylline 12 mg/ml nebulized, NECA dose-response 15 minutes later; control and sensitized mice. The procedure:
FIG. 3 illustrates the effect of enprofylline (enp; 12 mg/ml) on dose-responsiveness to 5′-(N-ethyl)carboxamidoadenosine (NECA, in ug/ml). Con=dotted line, Sen=dashed line, Con+enp=solid line, and Sen+enp=broken line.
FIG. 3 illustrates the effect of enprofylline (12 mg/ml) on dose-responsiveness to NECA. The animals were nebulized with enprofylline (12 mg/ml) for 1 minutes and 15 minutes later the dose-response to […] was performed. * p<0.05 compared to Sen+Enp group. # p<0.05 compared to control group. n=10 for each group. NECA is a non-selective adenosine receptor agonist; enprofylline is an A2B adenosine receptor antagonist.

In another assay the target is T2, A2A adenosine receptor (Mus musculus, UniProt Q60613).
T2 construct: from tissue; host or cells: live mouse (airways/lung), control and sensitized animals
The assay can be described thus: Effect of A2A antagonist on dose-responsiveness to CGS-21680 (Penh) in a mouse model of asthma. The note with it: DMPX 10^-4 M nebulized 3 minutes, agonist dose response 15 minutes later; control and sensitized mice. Here is the method: FIG. 2 illustrates the effect of DMPX (10^−4 M) on dose-responsiveness to […] (ug/ml). Con=solid line, Sen=dashed line, Con+DMPX=broken line, and Sen+DMPX=dotted line.
FIG. 2 illustrates the effect of DMPX (10^−4 M) on dose-responsiveness to […]. The animals were nebulized with DMPX (10^−4 M) for 3 minutes and 15 minutes later the dose response to CGS-21680 was performed. n=8 for each group. CGS-21680 is an A2A adenosine receptor agonist; DMPX is an A2A adenosine receptor antagonist.

The next assay concerns the target T3, A1 adenosine receptor (Mus musculus, UniProt Q60612).
T3 construct: from tissue; host or cells: live mouse (airways/lung), control and sensitized animals
T3 sequence (Q60612 1-326): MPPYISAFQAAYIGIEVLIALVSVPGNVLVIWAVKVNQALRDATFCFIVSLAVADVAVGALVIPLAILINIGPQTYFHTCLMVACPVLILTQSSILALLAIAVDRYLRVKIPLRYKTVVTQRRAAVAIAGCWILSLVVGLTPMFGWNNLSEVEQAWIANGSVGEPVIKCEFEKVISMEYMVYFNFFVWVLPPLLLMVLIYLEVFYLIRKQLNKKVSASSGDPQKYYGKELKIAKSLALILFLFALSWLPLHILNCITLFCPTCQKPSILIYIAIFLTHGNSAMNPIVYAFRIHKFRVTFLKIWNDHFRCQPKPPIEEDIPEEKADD
The assay can be described thus: Effect of A1 antagonist on dose-responsiveness to CPA (Penh) in a mouse model of asthma. The note with it: DPCPX 10^-4 M nebulized 3 minutes, CPA dose response 15 minutes later; control and sensitized mice. The procedure: FIG. 1 illustrates the effect of DPCPX (10^−4 M) on dose-responsiveness to CPA (micrograms per milliliter—ug/ml) in a mouse model of asthma. Control (Con)=dotted line, sensitized (Sen)=broken line, Con+DPCPX=solid line, and Sen+DPCPX=dashed line. Penh=percentage of saline in all Figures.
FIG. 1 illustrates the effect of DPCPX (10^−4 M) on dose-responsiveness to CPA in a mouse model of asthma. The animals were nebulized with DPCPX […] for 3 minutes and 15 minutes later the dose response to CPA was performed. n=8 for each group. CPA is an A1 adenosine receptor agonist; DPCPX is an A1 adenosine receptor antagonist.

Another assay concerns the target T4, A3 adenosine receptor (Mus musculus, UniProt Q61618).
T4 construct: from tissue; host or cells: live mouse (airways/lung), control and sensitized animals
T4 sequence (Q61618 1-319): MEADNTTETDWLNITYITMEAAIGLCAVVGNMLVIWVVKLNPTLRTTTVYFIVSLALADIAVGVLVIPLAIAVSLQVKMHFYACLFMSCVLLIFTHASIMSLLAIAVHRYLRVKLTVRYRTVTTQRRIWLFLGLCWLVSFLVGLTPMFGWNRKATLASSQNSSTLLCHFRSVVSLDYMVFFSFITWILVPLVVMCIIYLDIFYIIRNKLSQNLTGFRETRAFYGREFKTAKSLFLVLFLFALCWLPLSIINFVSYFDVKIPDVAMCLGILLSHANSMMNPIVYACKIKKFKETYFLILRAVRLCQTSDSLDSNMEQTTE
The assay can be described thus: Effect of MRS1220 on dose-responsiveness to IB-CL-MECA (bronchospasm) in a mouse model of asthma. The note with it: MRS1220 10^-6 M; control and sensitized mice. An excerpt:
Con=solid line, Sen=dotted line, Con+MRS=broken line, and Sen+MRS=dashed line.
Therefore, the combination of A3 and A2B antagonists appear better at blocking the adenosine-induced bronchospasm in a mouse model of asthma.

T2 sequence (Q60613 whole entry): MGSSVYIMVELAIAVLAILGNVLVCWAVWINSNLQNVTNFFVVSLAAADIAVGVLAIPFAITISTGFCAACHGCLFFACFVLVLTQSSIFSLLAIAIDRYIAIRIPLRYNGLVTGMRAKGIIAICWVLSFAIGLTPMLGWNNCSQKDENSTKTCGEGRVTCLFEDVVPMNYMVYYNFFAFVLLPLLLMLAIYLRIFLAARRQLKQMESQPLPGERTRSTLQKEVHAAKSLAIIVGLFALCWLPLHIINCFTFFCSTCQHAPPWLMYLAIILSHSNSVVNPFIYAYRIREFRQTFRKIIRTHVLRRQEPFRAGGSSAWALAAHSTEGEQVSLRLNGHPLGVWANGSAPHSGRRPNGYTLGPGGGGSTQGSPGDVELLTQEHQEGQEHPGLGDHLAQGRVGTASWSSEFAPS

Take `CCCn1c(=O)[nH]c(=O)c2[nH]cnc21` [enprofylline]: at A2B adenosine receptor, the “block of the response to NECA (Penh)” value was “did not totally block the response”.

In the case of `C#CCn1c(=O)c2c(ncn2C)n(C)c1=O` [DMPX], the “effect on dose-responsiveness to CGS-21680 (Penh)” value at A2A adenosine receptor is recorded as “no A2A adenosine receptor involvement”.

As to `CCCn1c(=O)c2[nH]c(C3CCCC3)nc2n(CCC)c1=O` [DPCPX], the “effect on dose-responsiveness to CPA (Penh)” value on A1 adenosine receptor is recorded as “no A1 adenosine receptor involvement”.

On to `O=C(Cc1ccccc1)Nc1nc2ccc(Cl)cc2c2nc(-c3ccco3)nn12` [MRS1220], for which the “block of the bronchospasm produced by IB-CL-MECA” value on A3 adenosine receptor is recorded as “did not completely block the bronchospasm”.
